In ChEMBL document CHEMBL5543130, “Design, Synthesis, and In Vivo Evaluation of Isosteviol Derivatives as New SIRT3 Activators with Highly Potent Cardioprotective Effects” (J Med Chem, 2024) one finds Activity and survival data, which are given here for six compounds.

The source made the active and inactive calls. The calls are words filed in the database; no cut-off is given here.

The species entered for data set [1] is Danio rerio. The data set can be described thus: Cardioprotective activity against doxorubicin-induced Tg(cmlc2: GFP) Zebrafish assessed as restoration of normal heart structure at 5 uM measured at 72 hrs post fertilization. Format: functional, organism-based.
The species entered for data set [2] is Danio rerio. Description: Cardioprotective activity against doxorubicin-induced Tg(cmlc2: GFP) Zebrafish assessed as reduction in cTnT mRNA level measured at 72 hrs post fertilization by qPCR analysis. It counts as functional, organism-based. Particulars: dose <= 5.0 µM.
Data set [3] has as its system Danio rerio. The data set can be described thus: Cardioprotective activity against doxorubicin-induced Tg(cmlc2: GFP) Zebrafish assessed as […] at 5 uM measured at 72 hrs post fertilization. It counts as functional, organism-based.
For data set [4], the species on record is Danio rerio. The data set can be described thus: Cardioprotective activity against doxorubicin-induced Tg(cmlc2: GFP) Zebrafish assessed as reduction in Anp mRNA level measured at 72 hrs post fertilization by qPCR analysis. It counts as functional, organism-based. Conditions: dose <= 5.0 µM. A general note: Real-time PCR tracks product formation cycle by cycle.

Data set [5] can be described thus: Toxicity in zebrafish embryos assessed as survival at upto 40 uM fertilized for 24 hrs followed by compound administration for 72 hrs and measured at 96 hrs post fertilization. On the set-up: species or system Danio rerio. Particulars: in vivo.
For data set [6], the system named is Danio rerio. The data set can be described thus: Cardioprotective activity against doxorubicin-induced Zebrafish cardiomyopathy model assessed as survival rate at 5 uM fertilized for 24 hrs followed by compound administration for 72 hrs and measured at 96 hrs post fertilization by inverted fluorescence microscopic analysis. Format: functional.
For data set [7], the species on record is Danio rerio. Description: Cardioprotective activity against doxorubicin-induced Tg(cmlc2: GFP) Zebrafish assessed as reduction in Bnp mRNA level measured at 72 hrs post fertilization by qPCR analysis. It counts as functional, organism-based.
For data set [8], the system named is Danio rerio. The data set can be described thus: Cardioprotective activity against doxorubicin-induced Zebrafish cardiomyopathy model at 5 to 15 uM fertilized for 24 hrs followed by compound administration for 72 hrs and measured at 96 hrs post fertilization by inverted fluorescence microscopic analysis. It counts as functional, organism-based. Conditions: dose 5-15 µM.

Data set [9] relates to Danio rerio. The data set can be described thus: Cardioprotective activity against doxorubicin-induced Zebrafish cardiomyopathy model assessed as survival rate at 15 uM fertilized for 24 hrs followed by compound administration for 72 hrs and measured at 96 hrs post fertilization by inverted fluorescence microscopic analysis. Format: functional.

As for `C[C@@]12CC[C@@H]3[C@@](CC[C@H]4[C@@]3(C)CCC[C@@]4(C)C(=O)N3CCN(C(=O)C4=C(C(=O)O)CCCC4)CC3)(CC1=O)C2`, the result in the data set filed under Danio rerio [1] and in the data set with Danio rerio [3] was Active. For the same compound, the Activity entry in the data set filed under Danio rerio [2] is “Dose-Dependent Effect”; in the data set filed under Danio rerio [4] it was “Dose-Dependent Effect”; in data set [5], “Non-Toxic”; in the data set with Danio rerio [6] it was 85%; in the data set filed under Danio rerio [7], “Dose-Dependent Effect”.

As for `C[C@@]12CC[C@@H]3[C@@](CC[C@H]4[C@@]3(C)CCC[C@@]4(C)C(=O)N3CCNCC3)(CC1=O)C2`, the result with Danio rerio [8] was Active.

As for `CC1CCCC(C(=O)O)C1C(=O)N1CCN(C(=O)[C@]2(C)CCC[C@@]3(C)[C@@H]4CC[C@@]5(C)C[C@]4(CC[C@@H]32)CC5=O)CC1` (some centres undefined), the outcome with Danio rerio [8] was Active.

With `CC(CC(=O)O)C(=O)N1CCN(C(=O)[C@]2(C)CCC[C@@]3(C)[C@@H]4CC[C@@]5(C)C[C@]4(CC[C@@H]32)CC5=O)CC1` (some centres undefined), the result in the data set with Danio rerio [8] was Active.

As to `CC(C)(C)OC(=O)N1CCN(C(=O)[C@]2(C)CCC[C@@]3(C)[C@@H]4CC[C@@]5(C)C[C@]4(CC[C@@H]32)CC5=O)CC1`, the result with Danio rerio [8] was Active.

Turning to `C[C@@]12CC[C@@H]3[C@@](CC[C@H]4[C@@]3(C)CCC[C@@]4(C)C(=O)N3CCN(C(=O)CCC(=O)O)CC3)(CC1=O)C2`, in the data set with Danio rerio [6] (Danio rerio), the survival at 5 µM came out at 50%. The survival at 15 µM in the data set on Danio rerio [9] is 50%. Also, in the data set with Danio rerio [8], the outcome was Active.
